These results are taken from ChEMBL document CHEMBL1133342, “A convenient extension of the Wessely-Moser rearrangement for the synthesis of substituted alkylaminoflavones as neuroprotective agents in vitro” (Bioorg Med Chem Lett, 2000).

A short description of data set [1]: Compound was tested in vitro for neuroprotective activity against L-homocysteic acid cytotoxicity in murine HT-22 hippocampal cell cultures by MTT reduction assay. In kind it is functional, Mus musculus, Hippocampus. For orientation: Formazan colour is commonly taken as a measure of viable cells.
A short description of data set [2]: Maximum tolerated concentration in vitro against murine HT-22 hippocampal cell cultures by MTT reduction assay. The class given is functional, Mus musculus, Hippocampus.
A short description of data set [3]: Compound was tested in vitro for neuroprotective activity against L-homocysteic acid cytotoxicity in murine HT-22 hippocampal cell cultures by LDH assay. The class given is functional, Mus musculus, Hippocampus.
Data set [4] can be described thus: Compound was tested in vitro for intrinsic neurotoxicity against murine HT-22 hippocampal cell cultures by MTT reduction assay. Also noted: species or system Hippocampus. Particulars: mouse, HT-22 hippocampal cells; read-out: TC50 (the source's name).
Data set [5] in a line: Maximum tolerated concentration in vitro against murine HT-22 hippocampal cell cultures by LDH assay. The class given is functional, Mus musculus, Hippocampus.
Data set [6] is described as follows: Compound was tested in vitro for intrinsic neurotoxicity against murine HT-22 hippocampal cell cultures by LDH assay. More on the design: species or system Hippocampus. Particulars: mouse, HT-22 hippocampal cells; read-out: TC50 (the source's name).

For the compound `CCCNc1c(O)cc(O)c2c(=O)cc(-c3ccccc3)oc12`, the PC50 came out at 7 µM in data set [1] and 8 µM in data set [3]. In addition, the MTC in data set [2] was 5 µM; in data set [5] it was 25 µM. In addition, the CC50 worked out at 14 µM in data set [4] and 28 µM in data set [6].

On to `CC(C)CNc1c(O)cc(O)c2c(=O)cc(-c3ccccc3)oc12`, for which the PC50 was determined as 4.6 µM in data set [1] and 4.2 µM in data set [3]. For the same compound, the MTC in data set [2] and in data set [5] was 10 µM throughout. Also, the CC50 in data set [4] and in data set [6] was 12 µM throughout.

`CC(C)Nc1c(O)cc2oc(-c3ccccc3)cc(=O)c2c1O`: the PC50 turned out to be 5.1 µM in data set [1] and 6.6 µM in data set [3]. For the same compound, the MTC in data set [2] is 10 µM; in data set [5] it was 100 µM. Besides, the results for the CC50 in data set [4] and in data set [6] were 18 µM and 152 µM, respectively.

On to `CC(C)CCNc1c(O)cc(O)c2c(=O)cc(-c3ccccc3)oc12`, for which the PC50 in data set [1] was determined as 5.3 µM; in data set [3], 5.5 µM. The MTC in data set [2] and in data set [5] was 10 µM throughout. In addition, the CC50 is 12 µM in data set [4] and 16 µM in data set [6].

`CCCNc1c(O)cc2oc(-c3ccccc3)cc(=O)c2c1O`: the figures for the PC50 in data set [1] and in data set [3] were 5.2 µM and 5.5 µM, respectively. Besides, the MTC turned out to be 5 µM in data set [2] and 100 µM in data set [5]. The CC50 in data set [4] was found to be 10 µM; in data set [6], 176 µM.

`CC(C)CCNc1c(O)cc2oc(-c3ccccc3)cc(=O)c2c1O`: the PC50 in data set [1] and in data set [3] was 5.2 µM each time. For the same compound, the MTC in data set [2] was determined as 5 µM; in data set [5], 100 µM. The CC50 in data set [4] worked out at 16 µM; in data set [6], 116 µM.

In the case of `C=CCNc1c(O)cc(O)c2c(=O)cc(-c3ccccc3)oc12`, the results for the PC50 in data set [1] and in data set [3] were above 5 µM and above 10 µM, respectively. Besides, the MTC was 5 µM in data set [2] and 10 µM in data set [5]. Besides, the values for the CC50 in data set [4] and in data set [6] were 18 µM and 11 µM, respectively.
